Article PMC9667936, “Functional mapping of the 14-3-3 hub protein as a guide to design 14-3-3 molecular glues” (Chemical Science, 2022)
Each block holds one molecule with its values, some of them ahead of it. Where a SMILES comes first, the peptide text is derived from it.

Experiments:
14-3-3γ/ChREBP = target: T1, 14-3-3γ/ChREBP (Homo sapiens, UniProt P61981+Q9NP71); assay: 2D FA titration of 14-3-3/ChREBP and cooperativity analysis with thermodynamic equilibrium model; assay type: binding; details: determined by the thermodynamic model from 2D FA titrations; 95% confidence interval; read-out: apparent binding affinity of ChREBP for 14-3-3 (K^IID)
T1 construct: made in house; host or cells: E. coli NiCo21 (DE3) for 14-3-3 gamma; ChREBP is a synthetic peptide
T1 sequence (P61981 1-247): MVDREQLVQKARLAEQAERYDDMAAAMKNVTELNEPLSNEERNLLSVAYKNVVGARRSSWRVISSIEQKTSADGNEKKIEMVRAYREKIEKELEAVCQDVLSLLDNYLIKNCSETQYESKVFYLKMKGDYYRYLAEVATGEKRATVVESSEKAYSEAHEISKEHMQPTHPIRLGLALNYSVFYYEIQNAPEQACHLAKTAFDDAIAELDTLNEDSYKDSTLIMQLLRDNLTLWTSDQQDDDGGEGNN
T1 sequence (Q9NP71 118-142 partner limits assumed): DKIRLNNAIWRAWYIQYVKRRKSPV
Experimental: a four-parameter logistic model (4PL). Each measurement was performed in two independent […]
Fluorescence anisotropy (FA) - 2D-14-3-3/ChREBP titrations: 14-3-3γ was titrated in a 2-fold dilution series (starting at 300 µM 14-3-3γ) to 20 nM of fluorescein-labeled peptide 2d in FA buffer (10 mM HEPES pH 7.4, 150 mM NaCl, 0.1% (v/v) Tween20, 0.1% (w/v) BSA) in presence of 2-fold dilution series of unlabeled ChREBP peptide (0.01-10 µM). Dilution series were made in a polystyrene (non-binding) low-volume Corning Black Round Bottom 384-well plates (Corning 4514 or 4511). Measurements were performed directly after plate preparation, using a Tecan Infinite F500 plate reader at room temperature (lex: 485 ± 20 nm; lem: 535 ± 25 nm; mirror: Dichroic 510; flashes: 20; integration time: 50 ms; settle time:
0 ms; gain: optimal; and Z-position: calculated from well). Wells containing only FITC-peptide were used to set as G-factor at 35 mP. All data were analyzed using GraphPad Prism (7.00) for Windows and fitted using a four-parameter logistic model (4PL). […]
with R = 14-3-3, P = non-natural peptide (labelled), and C = ChREBP. The framework determined based on this system description the equilibrium equations needed to determine KDII and α. […] From this the model determined the KDII and α (with 95% confidence interval) and the error-landscape of the determine parameters. […]

ChREBP peptide = target: T2, ChREBP peptide (Homo sapiens, UniProt Q9NP71); assay: 2D fluorescence anisotropy titration, thermodynamic equilibrium model fit
T2 chain: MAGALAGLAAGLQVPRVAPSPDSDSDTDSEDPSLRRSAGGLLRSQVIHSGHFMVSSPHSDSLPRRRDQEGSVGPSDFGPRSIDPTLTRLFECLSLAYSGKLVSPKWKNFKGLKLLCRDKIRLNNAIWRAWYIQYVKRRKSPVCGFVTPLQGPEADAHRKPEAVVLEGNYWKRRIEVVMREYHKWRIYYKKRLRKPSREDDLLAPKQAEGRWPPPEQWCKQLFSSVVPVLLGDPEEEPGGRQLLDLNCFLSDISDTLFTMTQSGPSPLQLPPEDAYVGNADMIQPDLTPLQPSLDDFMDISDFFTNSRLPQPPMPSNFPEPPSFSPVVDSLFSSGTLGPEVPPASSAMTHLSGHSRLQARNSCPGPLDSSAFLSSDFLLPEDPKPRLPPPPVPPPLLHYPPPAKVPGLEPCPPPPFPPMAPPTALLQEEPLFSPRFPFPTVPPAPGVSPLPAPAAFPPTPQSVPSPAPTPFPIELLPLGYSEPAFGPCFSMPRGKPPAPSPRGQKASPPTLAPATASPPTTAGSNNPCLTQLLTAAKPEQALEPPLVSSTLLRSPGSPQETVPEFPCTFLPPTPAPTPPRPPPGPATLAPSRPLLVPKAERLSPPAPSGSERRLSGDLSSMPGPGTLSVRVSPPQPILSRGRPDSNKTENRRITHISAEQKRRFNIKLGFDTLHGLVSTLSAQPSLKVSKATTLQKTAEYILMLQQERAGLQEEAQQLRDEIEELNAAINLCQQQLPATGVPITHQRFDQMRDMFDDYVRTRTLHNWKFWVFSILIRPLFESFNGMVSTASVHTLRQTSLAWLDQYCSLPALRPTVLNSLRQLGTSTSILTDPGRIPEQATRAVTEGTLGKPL

Kd (14-3-3γ/ChREBP): 1600 nM
Molecule: CC[C@H](C)[C@H](NC(=O)[C@H](C)NC(=O)[C@H](CC(N)=O)NC(=O)[C@H](CC(N)=O)NC(=O)[C@H](CC(C)C)NC(=O)[C@H](CCCNC(=N)N)NC(=O)[C@@H](NC(=O)[C@H](CCCCN)NC(=O)[C@H](CC(=O)O)NC(C)=O)[C@@H](C)CC)C(=O)N[C@@H](Cc1c[nH]c2ccccc12)C(=O)N[C@@H](CCCNC(=N)N)C(=O)N[C@@H](C)C(=O)N[C@@H](Cc1c[nH]c2ccccc12)C(=O)N[C@@H](Cc1ccc(O)cc1)C(=O)N[C@H](C(=O)N[C@@H](CCC(N)=O)C(=O)N[C@@H](Cc1ccc(O)cc1)C(=O)N[C@H](C(=O)N[C@@H](CCCCN)C(=O)N[C@@H](CCCNC(=N)N)C(=O)N[C@@H](CCCNC(=N)N)C(=O)N[C@@H](CCCCN)C(=O)N[C@@H](CO)C(=O)N1CCC[C@H]1C(=O)N[C@H](C(N)=O)C(C)C)C(C)C)[C@@H](C)CC [ChREBP, reference compound] (Ac-DKIRLNNAIWRAWYIQYVKRRKSPV-NH2)

Kd (ChREBP peptide): 1600 nM
B1: 14-3-3γ (protein)
chain: VDREQLVQKARLAEQAERYDDMAAAMKNVTELNEPLSNEERNLLSVAYKNVVGARRSSWRVISSIEQKTSADGNEKKIEMVRAYREKIEKELEAVCQDVLSLLDNYLIKNCSETQYESKVFYLKMKGDYYRYLAEVATGEKRATVVESSEKAYSEAHEISKEHMQPTHPIRLGLALNYSVFYYEIQNAPEQACHLAKTAFDDAIAELDTLNEDSYKDSTLIMQLLRDNLTLWTSDQQDDDGGEGNN
